Test results taken from US20260337583A1, “CYTOCHROME P450 ENZYME, NUCLEIC ACID MOLECULE, AND GLYCYRRHETINIC ACID DERIVATIVE AND USE THEREOF” (CHINA PHARMACEUTICAL UNIVERSITY, priority 2023, published 2026).
Read-outs that look alike come from different tables or passages of the source.

Key:
CYP161H12 [1] = biological target: T1, CYP161H12 (Amycolatopsis pretoriensis, UniProt A0A1H5RFX8)
CYP161H12 [2] = biological target: T1, CYP161H12; test: CYP161H12 catalytic activity on different substrates (cell-free CYP161H12-RHFRed/opt13 conversion, liquid chromatography); details: role: substrate; 2 mM substrate, 0.5 equiv. NADP+, 50 equiv. Na2HPO3·5H2O, 5% DMSO, pH 7.0, 23° C., 20 h; enzyme 3.68×10^−3 mM
[3] = system: human colon cancer cells (SW480); test: CCK-8 tumor cell growth inhibition, SW480; type: cell-based; details: for IC50: Homo sapiens, SW480, 48 h co-incubation, CCK-8, read-out: IC50 against SW480; for activity against human colon cancer cells compared with the parent compound 1 (glycyrrhetinic acid): relative to parent compound 1
Protocol: (§1) Human hepatocellular carcinoma cells (HepG2) and human colon cancer cells (SW480) were cultured in a complete culture medium consisting of high-glucose DMEM supplemented with 10% (v/v) heat-inactivated fetal bovine serum, 100 U/mL of penicillin, and […] of streptomycin. All cells used in the experiments were cultured in an incubator at 37° C. with 5% CO2 saturated humidity.
(§2) All compounds were dissolved in DMSO to prepare 20 mM compound stock solutions. • 10 μL of the compound stock solution was added to 1 mL of the complete culture medium to prepare a 200 μM compound solution; • 4 μL of the compound stock solution was added to 1 mL of the complete culture medium to prepare a 80 μM compound solution; • 0.5 mL of the 80 μM compound solution was added to 0.5 mL of the complete culture medium to prepare a 40 μM compound solution; • 0.5 mL of the 40 μM compound solution was added to 0.5 mL of the complete culture medium to prepare a 20 μM compound solution; • 0.5 mL of the 20 μM compound solution was added to 0.5 mL of the complete culture medium to prepare a 10 μM compound solution; • 0.5 mL of the 10 μM compound solution was added to 0.5 mL of the complete culture medium to prepare a 5 μM compound solution;
(§3) The inhibitory effects of the compounds on tumor cell growth were evaluated using a CCK-8 assay. A cell suspension at a predetermined density (5× 10^4/mL cells/mL) was seeded into a 96-well plate. Outermost 36 wells of the 96-well plate were filled with 200 μL of PBS buffer (0.01 M, pH 7.4), while inner 60 wells thereof were used as a drug group, a blank group, and a negative control group. Each group was tested in triplicate.
(§4) Drug group: 100 μL of the cell suspension was added to each well and incubated for 24 h, and 100 μL of the 80 μM compound solution (100 μL of the 200 μM solution was added to Compound 1) was added for co-incubating for another 48 h; 20 μL of CCK-8 solution was added to each well, followed by incubation for another 2 h; and absorbance at 450 nm was measured with a microplate reader.
(§5) Blank group: 100 μL of the complete culture medium was added to each well and incubated for 24 h, and 100 μL of the complete culture medium was then added for co-incubating for another 48 h; 20 μL of CCK-8 solution was added to each well, followed by incubation for another 2 h; and absorbance at 450 nm was measured with a microplate reader.
(§6) Negative control group: 100 μL of the cell suspension was added to each well and incubated for 24 h, and 100 μL of the complete culture medium containing 0.4 μL of DMSO was then added for co-incubating for another 48 h; 20 μL of CCK-8 solution was added to each well, followed by incubation for another 2 h; and absorbance at 450 nm was measured with a microplate reader.
(§7) The cell growth inhibitory ratio (IR) was calculated according to the following formulas:
(§8) [formula] • IR: Inhibitory Ratio • ODpositive: absorbance of the drug group • ODblank: absorbance of the blank group • ODnegative: absorbance of the negative control group
(§9) Each concentration was tested in triplicate. Based on the tumor cell inhibitory ratios at different concentrations, the IC50 was calculated using GraphPad Prism 9.

[4] = system: Human hepatocellular carcinoma cells (HepG2); test: CCK-8 tumor cell growth inhibition, HepG2; type: cell-based; details: for IC50: Homo sapiens, HepG2, 48 h co-incubation, CCK-8, read-out: IC50 against HepG2
Protocol: as §1, §2, §3, §4, §5, §6, §7, §8, §9

T1 sequence (A0A1H5RFX8 1-404): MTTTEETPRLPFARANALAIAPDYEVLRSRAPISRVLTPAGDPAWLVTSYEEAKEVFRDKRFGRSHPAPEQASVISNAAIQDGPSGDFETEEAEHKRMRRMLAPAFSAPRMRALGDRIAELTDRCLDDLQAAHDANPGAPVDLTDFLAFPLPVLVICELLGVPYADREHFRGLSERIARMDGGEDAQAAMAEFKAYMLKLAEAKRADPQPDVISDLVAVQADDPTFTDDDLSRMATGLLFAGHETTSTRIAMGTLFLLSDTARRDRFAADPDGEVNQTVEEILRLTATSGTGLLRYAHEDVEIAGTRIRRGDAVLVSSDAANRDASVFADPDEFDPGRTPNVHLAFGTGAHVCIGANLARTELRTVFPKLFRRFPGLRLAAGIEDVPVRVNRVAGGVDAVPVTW

Row | Compound | IC50 [3] | IC50 [4] | also measured
1 | CC1(C)C(=O)CC[C@]2(C)[C@H]3C(=O)C=C4[C@@H]5C[C@@](C)(C(=O)O)CC[C@]5(C)CC[C@@]4(C)[C@]3(C)CC[C@@H]12 [Substrate 5, 3-oxo-glycyrrhetinic acid] |  |  | ratio of hydroxylated products a:b (CYP161H12 [1]): 76:24; yield of Substrate catalyzed by CYP161H12 (CYP161H12 [1]; pH 7): 87%
2 | CCC(=O)O[C@H]1CC[C@]2(C)[C@H]3C(=O)C=C4[C@@H]5C[C@@](C)(C(=O)O)CC[C@]5(C)CC[C@@]4(C)[C@]3(C)CC[C@H]2C1(C)C [Substrate 3, 3-propionyl-glycyrrhetinic acid] |  |  | yield of Substrate catalyzed by CYP161H12 (CYP161H12 [2]): 61%
3 | CCC(=O)O[C@H]1CC[C@]2(C)[C@H]3C(=O)C=C4[C@@H]5C[C@@](C)(C(=O)O)CC[C@]5(C)CC[C@@]4(C)[C@]3(C)[C@@H](O)C[C@H]2C1(C)C [Compound 3a] | > 40 µM | > 40 µM | 
4 | CC1(C)c2oncc2C[C@]2(C)[C@H]3C(=O)C=C4[C@H]5C[C@@](C)(C(=O)O)CC[C@]5(C)CC[C@@]4(C)[C@]3(C)CC[C@@H]12 [Substrate 8] |  |  | yield of Substrate catalyzed by CYP161H12 (CYP161H12 [2]): 97%
5 | CC1(C)[C@@H](O)CC[C@]2(C)[C@H]3C(=O)C=C4[C@@H]5C[C@@](C)(C(=O)O)CC[C@]5(C)C[C@H](O)[C@@]4(C)[C@]3(C)[C@@H](O)C[C@@H]12 [Compound 1b] | > 40 µM | > 40 µM | 
6 | CC1(C)C(=O)CC[C@]2(C)[C@H]3C(=O)C=C4[C@@H]5C[C@@](C)(C(=O)O)CC[C@]5(C)C[C@H](O)[C@@]4(C)[C@]3(C)[C@@H](O)C[C@@H]12 [Compound 5b] | > 40 µM | > 40 µM | 
7 | CC1(C)c2oncc2C[C@]2(C)[C@H]3C(=O)C=C4[C@@H]5C[C@@](C)(C(=O)O)CC[C@]5(C)C[C@H](O)[C@@]4(C)[C@]3(C)[C@@H](O)C[C@@H]12 [Compound 8b] | > 40 µM | > 40 µM | 
8 | CC1(C)C(=O)CC[C@]2(C)[C@H]3C(=O)C=C4[C@@H]5C[C@@](C)(C(=O)O)CC[C@]5(C)CC[C@@]4(C)[C@]3(C)[C@@H](O)C[C@@H]12 [Compound 5a] | > 40 µM | > 40 µM | 
9 | CCCC(=O)O[C@H]1CC[C@]2(C)[C@H]3C(=O)C=C4[C@@H]5C[C@@](C)(C(=O)O)CC[C@]5(C)CC[C@@]4(C)[C@]3(C)[C@@H](O)C[C@H]2C1(C)C [Compound 4a] | > 40 µM | > 40 µM | 
10 | CC(=O)O[C@H]1CC[C@]2(C)[C@H]3C(=O)C=C4[C@@H]5C[C@@](C)(C(=O)O)CC[C@]5(C)CC[C@@]4(C)[C@]3(C)CC[C@H]2C1(C)C [Substrate 2, 3-acetyl-glycyrrhetinic acid] |  |  | yield of Substrate catalyzed by CYP161H12 (CYP161H12 [2]): 92%
11 | COC(=O)[C@@]1(C)CC[C@]2(C)CCC3(C)C(=CC(=O)[C@@H]4[C@@]5(C)CC[C@H](O)C(C)(C)[C@@H]5C[C@H](O)[C@]43C)[C@@H]2C1 (some centres unmarked) [Compound 9a] | > 40 µM | > 40 µM | 
12 | CC1(C)C(=O)C=C[C@]2(C)[C@H]3C(=O)C=C4[C@@H]5C[C@@](C)(C(=O)O)CC[C@]5(C)C[C@H](O)[C@@]4(C)[C@]3(C)[C@@H](O)C[C@@H]12 [Compound 6b] | > 40 µM | > 40 µM | 
13 | CC1(C)C(=O)C=C[C@]2(C)[C@H]3C(=O)C=C4[C@@H]5C[C@@](C)(C(=O)O)CC[C@]5(C)CC[C@@]4(C)[C@]3(C)[C@@H](O)C[C@@H]12 [Compound 6a] | > 40 µM | > 40 µM | 
14 | CC1(C)OC(=O)CC[C@]2(C)[C@H]3C(=O)C=C4[C@@H]5C[C@@](C)(C(=O)O)CC[C@]5(C)CC[C@@]4(C)[C@]3(C)CC[C@@H]12 [Substrate 7] |  |  | yield of Substrate catalyzed by CYP161H12 (CYP161H12 [2]): 87%
15 | CC1(C)OC(=O)CC[C@]2(C)[C@H]3C(=O)C=C4[C@@H]5C[C@@](C)(C(=O)O)CC[C@]5(C)CC[C@@]4(C)[C@]3(C)[C@@H](O)C[C@@H]12 [Compound 7a] | > 40 µM | > 40 µM | 
16 | CC1(C)C(=O)C=C[C@]2(C)[C@H]3C(=O)C=C4[C@@H]5C[C@@](C)(C(=O)O)CC[C@]5(C)CC[C@@]4(C)[C@]3(C)CC[C@@H]12 [Substrate 6, 3-oxo-1-ene-glycyrrhetinic acid] |  |  | yield of Substrate catalyzed by CYP161H12 (CYP161H12 [2]): 81%
17 | CC1(C)[C@@H](O)CC[C@]2(C)[C@H]3C(=O)C=C4[C@@H]5C[C@@](C)(C(=O)O)CC[C@]5(C)CC[C@@]4(C)[C@]3(C)CC[C@@H]12 [Compound 1, glycyrrhetinic acid] | > 100 µM | > 100 µM | yield of Substrate catalyzed by CYP161H12 (CYP161H12 [2]): 100%
18 | CC(=O)O[C@H]1CC[C@]2(C)[C@H]3C(=O)C=C4[C@@H]5C[C@@](C)(C(=O)O)CC[C@]5(C)CC[C@@]4(C)[C@]3(C)[C@@H](O)C[C@H]2C1(C)C [Compound 2a] | > 40 µM | > 40 µM | 
19 | CCCC(=O)O[C@H]1CC[C@]2(C)[C@H]3C(=O)C=C4[C@@H]5C[C@@](C)(C(=O)O)CC[C@]5(C)CC[C@@]4(C)[C@]3(C)CC[C@H]2C1(C)C [Substrate 4, 3-butyryl-glycyrrhetinic acid] |  |  | yield of Substrate catalyzed by CYP161H12 (CYP161H12 [2]): 23%
20 | C=CCCCCOC(=O)[C@@]1(C)CC[C@]2(C)CC[C@]3(C)C(=CC(=O)[C@@H]4[C@@]5(C)CC[C@H](O)C(C)(C)[C@@H]5C[C@H](O)[C@]43C)[C@@H]2C1 [Compound 10a] | 39.2 ± 2.34 µM | > 40 µM | activity against human colon cancer cells compared with the parent compound 1 (glycyrrhetinic acid) [3]: more than twice the activity
21 | CC(=O)O[C@H]1CC[C@]2(C)[C@H]3C(=O)C=C4[C@@H]5C[C@@](C)(C(=O)O)CC[C@]5(C)C[C@H](O)[C@@]4(C)[C@]3(C)[C@@H](O)C[C@H]2C1(C)C [Compound 2b] | > 40 µM | > 40 µM | 
22 | CC1(C)OC(=O)CC[C@]2(C)[C@H]3C(=O)C=C4[C@@H]5C[C@@](C)(C(=O)O)CC[C@]5(C)C[C@H](O)[C@@]4(C)[C@]3(C)[C@@H](O)C[C@@H]12 [Compound 7b] | > 40 µM | > 40 µM | 
23 | CC1(C)c2oncc2C[C@]2(C)[C@H]3C(=O)C=C4[C@@H]5C[C@@](C)(C(=O)O)CC[C@]5(C)CC[C@@]4(C)[C@]3(C)[C@@H](O)C[C@@H]12 [Compound 8a] | > 40 µM | > 40 µM | 
24 | C=CCCCCOC(=O)[C@@]1(C)CC[C@]2(C)C[C@H](O)[C@]3(C)C(=CC(=O)[C@@H]4[C@@]5(C)CC[C@H](O)C(C)(C)[C@@H]5C[C@H](O)[C@]43C)[C@@H]2C1 [Compound 10b] | 32 ± 3.36 µM | 38.6 ± 0.54 µM | activity against human colon cancer cells compared with the parent compound 1 (glycyrrhetinic acid) [3]: more than twice the activity; activity against human liver cancer cells compared with the parent compound 1 (glycyrrhetinic acid) ([4]; relative to parent compound 1): more than twice the activity
25 | CC1(C)[C@@H](O)CC[C@]2(C)[C@H]3C(=O)C=C4[C@@H]5C[C@@](C)(C(=O)O)CC[C@]5(C)CC[C@@]4(C)[C@]3(C)[C@@H](O)C[C@@H]12 [Compound 1a] | > 40 µM | > 40 µM | 
26 | COC(=O)[C@@]1(C)CC[C@]2(C)C[C@H](O)[C@]3(C)C(=CC(=O)[C@@H]4[C@@]5(C)CC[C@H](O)C(C)(C)[C@@H]5C[C@H](O)[C@]43C)[C@@H]2C1 [Compound 9b] | > 40 µM | > 40 µM | 
